Data set [1] deals with T1, human vasopressin V1b receptor (Homo sapiens, UniProt P47901).
T1 construct: expressed in transfected cells; host or cells: CHO-K1 (clone 3H2; cell line hV1b-3H2_CHO), membrane preparation
T1 sequence (P47901 1-424): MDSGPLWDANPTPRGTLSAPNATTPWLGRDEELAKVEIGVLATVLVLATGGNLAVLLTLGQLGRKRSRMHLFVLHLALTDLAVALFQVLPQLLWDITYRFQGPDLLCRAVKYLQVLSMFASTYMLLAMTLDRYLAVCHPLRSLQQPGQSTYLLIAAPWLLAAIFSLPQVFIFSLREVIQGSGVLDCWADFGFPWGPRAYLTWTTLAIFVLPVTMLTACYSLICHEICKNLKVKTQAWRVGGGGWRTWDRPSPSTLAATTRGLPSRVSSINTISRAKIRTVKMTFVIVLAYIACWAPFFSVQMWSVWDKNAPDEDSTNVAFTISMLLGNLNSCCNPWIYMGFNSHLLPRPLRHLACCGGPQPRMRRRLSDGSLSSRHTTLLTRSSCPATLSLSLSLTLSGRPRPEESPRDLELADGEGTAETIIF
Kind of data set: Vasopressin V1b receptor binding assay. The conditions noted are these: membranes from CHO-K1 cells with human V1b receptor, 1.5 nM 3H-AVP. As to the method: 1. Vasopressin V1b Receptor Binding Assay:
The substance concentration was further diluted 1:5 in the assay mixture (2% DMSO in the mixture).
The nonspecific binding was determined with 1 M AVP (Bachem # H1780). All determinations were carried out as triplicate determinations.

Data set [2] in a line: Determination of the microsomal half-life / microsomal clearance. In kind it is in vitro ADME. The conditions noted are these: pH 7.4; human liver microsomes, 0.5 μM test substance, 0.25 mg microsomal protein/ml. The protocol:
5. Determination of the Microsomal Half-Life:
The metabolic stability of the compounds of the invention was determined in the following assay.
The test substances were incubated in a concentration of 0.5 μM as follows: 0.5 μM test substance are preincubated together with liver microsomes from different species (from rat, human or other species) (0.25 mg of microsomal protein/ml) in 0.05 M potassium phosphate buffer of pH 7.4 in microtiter plates at 37° C. for 5 min. The reaction is started by adding NADPH (1 mg/mL). After 0, 5, 10, 15, 20 and 30 min, 50 μl aliquots are removed, and the reaction is immediately stopped and cooled with the same volume of acetonitrile. The samples are frozen until analyzed. The remaining concentration of undegraded test substance is determined by MSMS. The half-life (T½) is determined from the gradient of the signal of test substance/unit time plot, it being possible to calculate the half-life of the test substance, assuming first order kinetics, from the decrease in the concentration of the compound with time. The microsomal clearance (mCl) is calculated from mCl=In2/T½/(content of microsomal protein in mg/ml)×1000 […] (modified from references: Di, The Society for Biomoleculur Screening, 2003, 453-462; Obach, DMD, 1999 vol 27. N 11, 1350-1359).
Background: Microsomes from liver hold many membrane-bound enzymes, among them those of drug oxidation.

The target of data set [3] is human vasopressin V1a receptor (Homo sapiens, UniProt P37288). Kind of data set: Vasopressin V1a receptor binding assay. The conditions noted are these: selectivity: quotient of Ki at human V1a and Ki at human V1b.

Bounds are passed on as bounds.

Sequence of human vasopressin V1a receptor (P37288 whole entry): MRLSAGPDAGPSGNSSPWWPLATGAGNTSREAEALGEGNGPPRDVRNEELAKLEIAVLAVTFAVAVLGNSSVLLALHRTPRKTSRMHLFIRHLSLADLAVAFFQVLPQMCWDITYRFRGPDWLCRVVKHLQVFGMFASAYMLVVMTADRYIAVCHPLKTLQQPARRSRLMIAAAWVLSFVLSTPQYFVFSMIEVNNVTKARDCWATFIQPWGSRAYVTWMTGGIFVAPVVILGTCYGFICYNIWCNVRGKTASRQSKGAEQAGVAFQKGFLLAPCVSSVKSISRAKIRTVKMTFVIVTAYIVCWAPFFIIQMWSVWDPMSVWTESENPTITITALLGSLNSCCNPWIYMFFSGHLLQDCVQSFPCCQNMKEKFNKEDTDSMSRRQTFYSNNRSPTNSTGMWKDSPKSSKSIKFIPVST

Consider `CCOc1ncccc1C1(NC(=O)N2CCC(C3CCN(C)CC3)CC2)C(=O)N(S(=O)(=O)c2ccc(OC)cc2OC)c2ccc(Cl)cc21` (racemic) [Example 13, (±)-1′-Methyl-[4,4′]bipiperidinyl-1-[5-chloro-1-(2,4-dimethoxyphenylsulfonyl)-3-(2-ethoxypyridin-3-yl)-2-oxo-2,3-dihydro-1H-indol-3-yl]carboxamide], for which the Ki in data set [1] is less than 1 nM. This compound returned a microsomal CLint at 0.5 μM in data set [2] of 75 to 100 µL/min/mg. In addition, in data set [3], the “Ki(h-V1a)/Ki(h-V1b)” value is “++ (25-75)”.

In data set [1], `CCOc1ncccc1C1(NC(=O)N2CCN(C3CCN(CC)CC3)CC2)C(=O)N(S(=O)(=O)c2ccc(OC)cc2OC)c2ccc(Cl)cc21` (single isomer, unassigned; (+)) [Example 4B, (+)-4-(1-Ethylpiperidin-4-yl)piperazine-1-[5-chloro-1-(2,4-dimethoxyphenylsulfonyl)-3-(2-ethoxypyridin-3-yl)-2-oxo-2,3-dihydro-1H-indol-3-yl]carboxamide] yielded a Ki of less than 1 nM. Moreover, in data set [2], the microsomal CLint at 0.5 μM is 50 to 75 µL/min/mg. Further, the “Ki(h-V1a)/Ki(h-V1b)” value in data set [3] was “+++ (>75)”.

As a reminder, the Ki is the equilibrium dissociation constant of an inhibitor or competing ligand from its target. Read a low Ki as higher affinity. The term microsomal CLint denotes a measure of how fast metabolising enzymes remove a compound, apart from limits set by blood flow.
